Data on three molecules can be found in article PMC10819521 (Pharmaceutics, 2024).

Values joined by “and” are separate entries in the source; they are usually repeats but may differ in a detail not shown here. Equal values may be shown once.

Assay [1] deals with voltage-gated calcium channels. In words: Calcium channel blockade (FLIPR Calcium 6 indicator, SH-SY5Y cells). It counts as cell-based, human. The conditions noted are these: compounds at 10 µM, KCl/CaCl2 stimulation, n.i. = no inhibition. As for the experimental part:
Calcium channel blockade. Evaluation of the calcium channel blockade of compounds 4a–l was performed using the FLIPR Calcium 6 indicator according to a previously established protocol. Briefly, human neuroblastoma cell line SH-SY5Y seeded out on 96-well plate were treated with fluorescent calcium indicator (FLIPR Calcium 6, Molecular Devices). Cells were incubated with indicator for 2 h at 37 °C, facilitating internalization of the indicator. Subsequently, cells were exposed to nimodipine (10 µM, used as reference inhibitor), DMSO (0.1%, used as vehicle control) or our compounds of interest (10 µM) for 10 min also at 37 °C. Following that, cell fluorescence was recorded using a microplate reader (λEx = 485 nm; λEm = 525 nm). Baseline fluorescence was recorded for 5 s. Afterwards, cells were stimulated by the addition of the solution of KCl and CaCl2 (90 and 5 mM, respectively) in order to induce the opening of voltage-gated calcium channels. An increase in fluorescence of calcium indicator after inducing calcium flux was recorded for another 30 s. Data were collected from three independent experiments, with eight technical replicates per experiment. Fluorescence intensity values were normalized to the baseline recorded before the induction of calcium flux. The percentage of inhibition was calculated as a reduction of normalized calcium flux in comparison with the DMSO vehicle control. Outliers were detected using the Grubbs test, and any outlying values were excluded from further analysis.
Calcium channel blockade. The Ca^2+ channel blocking capacity of compounds 4a–l and nimodipine, used as a standard at a concentration of 10 μM, was evaluated according to an established methodology.

Assay [2] in a line: Oxygen radical absorbance capacity assay (ORAC-FL). Conditions: ORAC-FL method; mean ± SEM. As for the experimental part:
Oxygen radical absorbance capacity assay. The evaluation of the antioxidant activity of compounds 4a–l was carried out using the previously established ORAC-FL method, and detailed information is provided in the supporting information.
Antioxidant assay. The antioxidant assessment was conducted by evaluating the compounds 4a–l through the determination of oxygen radical absorbance capacity (ORAC) using the ORAC-Fluorescein (ORAC-FL) method […]
Oxygen radical absorbance capacity assay.
ORAC-FL method, using fluorescein as a fluorescent probe. Shortly, fluorescein and the antioxidants
2,2'-Azobis(amidinopropane)
(emission wavelength) every minute for 1 hour. […]

The test system of the next assay is Nrf2-ARE. Briefly: Nrf2 transcriptional activation, cell-based luciferase assay. The conditions noted are these: CD = concentration required to double the specific activity of the luciferase reporter; 24 h; read-out: Nrf2 Induction Potencies CD. As to the method:
Nrf2 transcriptional activation potencies. The assessment of the Nrf2 transcriptional activation potencies of compounds 4a–l was carried out using the previously described method, and detailed information is provided in the supporting information.
Nrf2 transcriptional activation potencies of compounds 4a–l. […] AREc32 cells were exposed to escalating concentrations of each compound (1, 5, 10, 25, 50, 100, 125, and 150 μM) for 24 h to reach the cytotoxic threshold, followed by measurements of luciferase activity. Melatonin was used as a positive control.
4e H Cl H n.i. 76 n.i. […]
Nrf2 transcriptional activation potencies. The stable NRF2/ARE luciferase reporter HEK293 cell line
(Promega) according to the manufacturer's instructions. To assess cellular viability, the stable
On the technique in general: Reporter assays use an easily measured gene product as a stand-in for the process of interest.

The target in assay [3] is T1, Human recombinant cathepsin S (Homo sapiens, UniProt P25774).
T1 construct: purchased Enzo Life Sciences
T1 sequence (P25774 115-331): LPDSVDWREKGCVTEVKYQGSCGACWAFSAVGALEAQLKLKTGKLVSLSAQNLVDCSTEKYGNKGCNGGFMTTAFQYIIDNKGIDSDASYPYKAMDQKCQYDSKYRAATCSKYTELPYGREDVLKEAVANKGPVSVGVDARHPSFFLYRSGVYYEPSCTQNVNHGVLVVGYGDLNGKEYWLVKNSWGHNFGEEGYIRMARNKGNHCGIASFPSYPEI
In words: Cathepsin S assay (fluorogenic substrate Z-Phe-Arg-AMC). The format is biochemical. Conditions: 50 µM inhibitor, 60 min; 100% = no inhibitor; n.i. = residual activity ≥ 95%; read-out: Percentage residual activity of human cathepsin S. As to the method:
(§1) Cathepsin assays. Assays with human cathepsins B, S, L, and K were carried out as described previously. Stock solutions of substrates and inhibitors were prepared in DMSO. The final DMSO concentration was 2%. All test compounds were investigated in duplicate at a concentration of 50 µM to determine residual activities based on endpoints of substrate consumption after 60 min. Ki values were obtained in duplicate measurements with six different inhibitor concentrations, and 60-min-progress curves were analyzed by linear regression. IC50 values were obtained by non-linear regression using the equation vi = v0/(1 + ([I]/IC50), where vi is the product formation rate at different inhibitor concentrations, v0 is the uninhibited product formation rate, [I] is the inhibitor concentration, and IC50 is the half-maximal inhibitory concentration. IC50 values are transformed to Ki values using the Cheng-Prusoff equation.
Human recombinant cathepsin S (Enzo Life Sciences) was assayed fluorometrically (FLUOstar Optima plate reader, BMG Labtech) at 25 °C with an emission wavelength of 360 nm and an absorption wavelength of 460 nm. The assay buffer was 100 mM sodium phosphate buffer pH 6.0, 100 mM NaCl, 5 mM EDTA, 0.01% Brij 35. For activation, an enzyme stock solution was diluted with assay buffer containing 5 mM DTT and incubated for 60 min at 37 °C.
(§2) Cathepsins inhibition. Compounds 4a–l were then evaluated for their ability to inhibit Cat S. Besides Cat S, the set of assays included three related human cathepsins, B, L, and K, all members of the class of lysosomal cysteine proteases (see Table S1 in the Supporting Information). Following reported procedures, [39, 40, 41] percentage or residual activities were determined using chromogenic or fluorogenic peptide substrates, with endpoints measured after 60 min of substrate consumption. To determine Ki values, progress curves were followed over 60 min and analyzed by linear regression. Ki values were then obtained by non-linear regression.

For assay [4], the target named is T2, Human isolated cathepsin B (Homo sapiens, UniProt P07858).
T2 construct: Human isolated cathepsin B (Calbiochem) was assayed spectrophotometrically; purchased Calbiochem
In words: Cathepsin B assay (chromogenic substrate Z-Arg-Arg-pNA). The format is biochemical. Conditions: 50 µM inhibitor, 60 min; 100% = no inhibitor; n.i. = residual activity ≥ 95%; read-out: Percentage residual activity of human cathepsin B. As to the method:
as §1
Human isolated cathepsin B (Calbiochem) was assayed spectrophotometrically (Cary 50 Bio, Varian) at 405 nm and 37 °C. Assay buffer was 100 mM sodium phosphate buffer pH 6.0, 100 mM NaCl, 5 mM EDTA, 0.01% Brij 35. For activation, an enzyme stock solution was diluted with assay buffer containing 5 mM DTT and incubated for 30 min at 37 °C. The final concentration of the chromogenic substrate Z-Arg-Arg-pNA was 500 µM (0.45 × Km).
as §2

Assay [5] addresses T3, Human isolated cathepsin L (Homo sapiens, UniProt P07711).
T3 construct: Human isolated cathepsin L (Enzo Life Sciences) was assayed spectrophotometrically; purchased Enzo Life Sciences
In words: Cathepsin L assay (chromogenic substrate Z-Phe-Arg-pNA). The format is biochemical. The conditions noted are these: 50 µM inhibitor, 60 min; 100% = no inhibitor; n.i. = residual activity ≥ 95%; read-out: Percentage residual activity of human cathepsin L. As to the method:
as §1
Human isolated cathepsin L (Enzo Life Sciences) was assayed spectrophotometrically (Cary 50 Bio, Varian) at 405 nm and 37 °C. The assay buffer was 100 mM sodium phosphate buffer pH 6.0, 100 mM NaCl, 5 mM EDTA, and 0.01% Brij 35. For activation, an enzyme stock solution was diluted with assay buffer containing 5 mM DTT and incubated for 30 min at 37 °C. The final concentration of the chromogenic substrate Z-Phe-Arg-pNA was 100 µM (5.88 × Km).
as §2

The target of assay [6] is T4, Human recombinant cathepsin K (Homo sapiens, UniProt P43235).
T4 construct: purchased Enzo Life Sciences
T4 sequence (P43235 115-329): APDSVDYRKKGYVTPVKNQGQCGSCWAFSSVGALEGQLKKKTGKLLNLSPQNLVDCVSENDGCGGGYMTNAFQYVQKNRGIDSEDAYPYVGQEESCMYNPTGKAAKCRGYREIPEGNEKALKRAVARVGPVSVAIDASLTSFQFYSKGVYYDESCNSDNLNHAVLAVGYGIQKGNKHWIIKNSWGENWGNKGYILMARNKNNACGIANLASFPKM
In words: Cathepsin K assay (substrate Z-Leu-Arg-AMC). The conditions noted are these: 50 µM inhibitor, 60 min; 100% = no inhibitor; n.i. = residual activity ≥ 95%; read-out: Percentage residual activity of human cathepsin K. The format is biochemical. As to the method: as §1
Human recombinant cathepsin K (Enzo Life Sciences) was assayed fluorometrically (FLUOstar Optima plate reader, BMG Labtech) with an emission wavelength of 360 nm and an absorption wavelength of 460 nm. The assay buffer was 100 mM sodium citrate pH 5.0, 100 mM NaCl, 1 mM EDTA, 0.01% CHAPS. For activation, an enzyme stock solution was diluted with assay buffer containing 5 mM DTT and incubated for 30 min at 37 °C. The final concentration of the chromogenic substrate Z-Leu-Arg-AMC was 40 µM (13.33 × Km).
as §2

T3 sequence (P07711 114-333): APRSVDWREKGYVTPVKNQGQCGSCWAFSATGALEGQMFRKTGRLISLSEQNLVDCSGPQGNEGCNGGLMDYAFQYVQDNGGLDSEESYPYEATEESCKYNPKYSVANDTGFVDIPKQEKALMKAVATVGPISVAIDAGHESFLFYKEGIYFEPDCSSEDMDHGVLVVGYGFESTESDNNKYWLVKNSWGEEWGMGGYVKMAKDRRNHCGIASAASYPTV

Regarding `C#CCN(C)C(=O)C1=C(C)NC(C)=C(C(=O)N(C)CC#C)C1c1cccc(Cl)c1Cl` [4j, 4-(2,3-Dichlorophenyl)-N2,N3,5,6-tetramethyl-N3,N5-bis(prop-2-yn-1-yl)-1,4-dihydropyridine-3,5-dicarboxamide], in assay [1], the “Calcium Channel Blockade (%)” value was determined as 12%. In assay [2], the ORAC is 1.82 Trolox equivalents and 1.82 ± 0.05 Trolox equivalents. Also, the EC50 with Nrf2-ARE was 77.2 ± 7.1 µM. Further, the remaining activity at 50 µM in assay [3] was 69%; in assay [4], 90%; in assay [5], 87%; in assay [6], 81%.
As to `C#CCN(C)C(=O)C1=C(C)NC(C)=C(C(=O)N(C)CC#C)C1c1ccccc1OC` [4k, 4-(2-Methoxyphenyl)-N2,N3,5,6-tetramethyl-N3,N5-bis(prop-2-yn-1-yl)-1,4-dihydropyridine-3,5-dicarboxamide], the “Calcium Channel Blockade (%)” value in assay [1] was determined as 14%. Further, the ORAC result in assay [2] is listed as “n.i”. In the assay with Nrf2-ARE, the EC50 came to 69.4 ± 9.1 µM. The remaining activity at 50 µM worked out at 79% in assay [3], 86% in assay [4], 92% in assay [5] and 82% in assay [6].
On to `C#CCN(C)C(=O)C1=C(C)NC(C)=C(C(=O)N(C)CC#C)C1c1cccc(OC)c1` [4l, 4-(3-Methoxyphenyl)-N2,N3,5,6-tetramethyl-N3,N5-bis(prop-2-yn-1-yl)-1,4-dihydropyridine-3,5-dicarboxamide], for which the “Calcium Channel Blockade (%)” value in assay [1] turned out to be 15%. For the same molecule, the ORAC in assay [2] is 0.96 ± 0.07 Trolox equivalents. Moreover, the EC50 in the assay on Nrf2-ARE came to 81.7 ± 11.6 µM. For the same molecule, the remaining activity at 50 µM in assay [3] stood at 79%; in assay [4], 86%; in assay [5], 88%; in assay [6], 81%.
